In article PMC10201049, “Rhein-attenuates LPS-induced acute lung injury via targeting NFATc1/Trem2 axis” (Inflammation Research, 2023):

Biological target: T1, NFATc1 (Mus musculus, UniProt O88942)
T1 construct: endogenous protein in RAW264.7 cell lysate
T1 sequence (O88942 1-717): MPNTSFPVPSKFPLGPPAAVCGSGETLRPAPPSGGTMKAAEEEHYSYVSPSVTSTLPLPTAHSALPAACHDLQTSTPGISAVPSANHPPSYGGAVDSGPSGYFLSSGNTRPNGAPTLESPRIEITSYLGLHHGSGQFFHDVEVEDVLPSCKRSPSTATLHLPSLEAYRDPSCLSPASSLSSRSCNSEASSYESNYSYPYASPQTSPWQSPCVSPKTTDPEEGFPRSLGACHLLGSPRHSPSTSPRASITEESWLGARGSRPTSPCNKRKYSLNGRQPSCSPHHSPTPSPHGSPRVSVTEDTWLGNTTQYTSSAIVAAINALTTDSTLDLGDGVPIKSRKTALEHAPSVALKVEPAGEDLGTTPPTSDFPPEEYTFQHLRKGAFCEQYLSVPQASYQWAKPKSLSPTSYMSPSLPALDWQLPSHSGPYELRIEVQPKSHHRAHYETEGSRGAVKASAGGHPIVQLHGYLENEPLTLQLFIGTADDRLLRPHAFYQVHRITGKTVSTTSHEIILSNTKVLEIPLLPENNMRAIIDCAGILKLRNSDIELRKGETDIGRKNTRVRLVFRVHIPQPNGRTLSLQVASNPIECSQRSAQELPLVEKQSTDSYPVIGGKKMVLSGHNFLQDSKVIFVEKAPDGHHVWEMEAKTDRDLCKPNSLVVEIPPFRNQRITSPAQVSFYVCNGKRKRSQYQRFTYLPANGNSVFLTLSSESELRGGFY
Experiment: biotin pull-down on streptavidin beads, western blot
Type: biochemical
Conditions: labelled compound (biotin conjugate of rhein, linker only drawn); biotin alone as control; RAW264.7 lysate, 4 °C bead loading

O=C1N[C@H]2[C@H](CS[C@H]2CCCCC(=O)Oc2cccc3c2C(=O)c2c(O)cc(C(=O)O)cc2C3=O)N1 [Bio-Rhein, Biotinylated-Rhein]
biotin pull-down on streptavidin beads, western blot: The results of western immunoblotting indicated the direct interaction between rhein and NFATc1
